# Source: patent publication US6319702A, “Nucleic acids encoding mutant human carboxypeptidase A enzymes” (Glaxo Wellcome, Inc., priority 1993, dated 2001)
# Where two headings read alike, the source gives them in different places.
# Tests used:
# [1] = Stability and biodistribution of prodrugs in vivo (HPLC of plasma and tissues); set-up: species or system mice (CD-1 nude; BALB/C where indicated); settings: for stability in vivo (in words): mice
# [2] = target: T1, wild type human carboxypeptidase A1 (Homo sapiens, UniProt P15085); assay: Enzyme kinetics of prodrugs with wild type human carboxypeptidase A1 (coupled assay); format: biochemical
# T1 sequence (P15085 111-419): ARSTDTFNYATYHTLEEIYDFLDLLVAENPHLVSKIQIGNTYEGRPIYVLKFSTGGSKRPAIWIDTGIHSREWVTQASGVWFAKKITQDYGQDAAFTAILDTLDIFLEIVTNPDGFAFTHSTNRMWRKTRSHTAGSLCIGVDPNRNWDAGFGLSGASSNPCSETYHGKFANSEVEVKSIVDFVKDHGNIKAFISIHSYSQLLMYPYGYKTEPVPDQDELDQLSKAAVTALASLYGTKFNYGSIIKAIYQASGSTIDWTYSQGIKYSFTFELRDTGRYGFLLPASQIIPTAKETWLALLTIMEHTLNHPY
# In short: (§1)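 Coupled spectrophotometric assay: released methotrexate converted by excess carboxypeptidase G (17 milliunits) to its pteroate, followed at 315 nm (Δε 9.57 mM^-1 cm^-1). 25° C in 25 mM tris-HCl, 100 mM NaCl, pH 7.4; reaction started with wild-type or mutant carboxypeptidase A. Kinetic constants from initial velocities by Michaelis-Menten analysis.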
# 268ala = assay: Enzyme kinetics of prodrugs with 268ala mutant of human CPA1 (coupled assay); format: biochemical; settings: 25° C., pH 7.4
# In short: as §1
# 268gly = assay: Enzyme kinetics of prodrugs with 268gly mutant of human CPA1 (coupled assay); format: biochemical; settings: for kcat/Km: 268Gly
# In short: as §1
# mutant enzyme = assay: Substrate behaviour with mutant enzyme; format: biochemical, human
# Excerpt: This type of compound is not useful for ADEPT.
# in vivo = settings: mouse, iv
# [3] = CECUM, 30 min, 50 mg/kg i.p. or i.v., CD-1 nude mice
# [4] = CECUM, 120 min, 50 mg/kg i.p. or i.v., CD-1 nude mice
# [5] = FECES, 30 min, 50 mg/kg i.p. or i.v., CD-1 nude mice
# [6] = FECES, 120 min, 50 mg/kg i.p. or i.v., CD-1 nude mice
# [7] = KIDNEY, 30 min, 50 mg/kg i.p. or i.v., CD-1 nude mice
# [8] = KIDNEY, 120 min, 50 mg/kg i.p. or i.v., CD-1 nude mice
# [9] = LARGE INTESTINE, 30 min, 50 mg/kg i.p. or i.v., CD-1 nude mice
# [10] = LARGE INTESTINE, 120 min, 50 mg/kg i.p. or i.v., CD-1 nude mice
# [11] = LIVER, 30 min, 50 mg/kg i.p. or i.v., CD-1 nude mice
# [12] = LIVER, 120 min, 50 mg/kg i.p. or i.v., CD-1 nude mice
# [13] = SMALL INTESTINE, 30 min, 50 mg/kg i.p. or i.v., CD-1 nude mice
# [14] = SMALL INTESTINE, 120 min, 50 mg/kg i.p. or i.v., CD-1 nude mice
# [15] = SPLEEN, 30 min, 50 mg/kg i.p. or i.v., CD-1 nude mice
# [16] = mouse, cecum, 50 mg/kg, CECUM, 30 min, 50 mg/kg i.p. or i.v., CD-1 nude mice, read-out: stability: percentage of material observed as intact prodrug, cecum
# [17] = mouse, cecum, 50 mg/kg, CECUM, 120 min, 50 mg/kg i.p. or i.v., CD-1 nude mice, read-out: stability: percentage of material observed as intact prodrug, cecum
# [18] = mouse, feces, 50 mg/kg, FECES, 30 min, 50 mg/kg i.p. or i.v., CD-1 nude mice, read-out: stability: percentage of material observed as intact prodrug, feces (converted)
# [19] = mouse, feces, 50 mg/kg, FECES, 120 min, 50 mg/kg i.p. or i.v., CD-1 nude mice, read-out: stability: percentage of material observed as intact prodrug, feces
# [20] = mouse, kidney, 50 mg/kg, KIDNEY, 30 min, 50 mg/kg i.p. or i.v., CD-1 nude mice, read-out: stability: percentage of material observed as intact prodrug, kidney
# [21] = mouse, kidney, 50 mg/kg, KIDNEY, 120 min, 50 mg/kg i.p. or i.v., CD-1 nude mice, read-out: stability: percentage of material observed as intact prodrug, kidney
# [22] = mouse, large intestine, 50 mg/kg, LARGE INTESTINE, 30 min, 50 mg/kg i.p. or i.v., CD-1 nude mice, read-out: stability: percentage of material observed as intact prodrug, large intestine
# [23] = mouse, large intestine, 50 mg/kg, LARGE INTESTINE, 120 min, 50 mg/kg i.p. or i.v., CD-1 nude mice, read-out: stability: percentage of material observed as intact prodrug, large intestine
# [24] = mouse, liver, 50 mg/kg, LIVER, 30 min, 50 mg/kg i.p. or i.v., CD-1 nude mice, read-out: stability: percentage of material observed as intact prodrug, liver (converted)
# [25] = mouse, liver, 50 mg/kg, LIVER, 120 min, 50 mg/kg i.p. or i.v., CD-1 nude mice, read-out: stability: percentage of material observed as intact prodrug, liver
# [26] = mouse, plasma, 50 mg/kg, PLASMA, 30 min, 50 mg/kg i.p. or i.v., CD-1 nude mice, read-out: concentration of prodrug in plasma
# [27] = mouse, plasma, 50 mg/kg, PLASMA, 30 min, 50 mg/kg i.p. or i.v., CD-1 nude mice, read-out: stability: percentage of material observed as intact prodrug, plasma
# [28] = mouse, small intestine, 50 mg/kg, SMALL INTESTINE, 30 min, 50 mg/kg i.p. or i.v., CD-1 nude mice, read-out: stability: percentage of material observed as intact prodrug, small intestine
# [29] = mouse, small intestine, 50 mg/kg, SMALL INTESTINE, 120 min, 50 mg/kg i.p. or i.v., CD-1 nude mice, read-out: stability: percentage of material observed as intact prodrug, small intestine
# [30] = mouse, spleen, 50 mg/kg, SPLEEN, 30 min, 50 mg/kg i.p. or i.v., CD-1 nude mice, read-out: stability: percentage of material observed as intact prodrug, spleen
structure (smiles),measurement,setting,value
CN(Cc1cnc2nc(N)nc(N)c2n1)c1ccc(C(=O)N[C@@H](CCC(=O)O)C(=O)N[C@@H](Cc2ccccc2C2CCCC2)C(=O)O)cc1 [Prodrug 8],concentration of prodrug in cecum,[1]; [3],6.8 nmol/g
same,concentration of prodrug in cecum,[1]; [4],235.1 nmol/g
same,concentration of prodrug in feces,[1]; [5],150.2 nmol/g
same,concentration of prodrug in feces,[1]; [6],646.2 nmol/g
same,concentration of prodrug in kidney,[1]; [7],5.6 nmol/g
same,concentration of prodrug in kidney,[1]; [8],3.2 nmol/g
same,concentration of prodrug in large intestine,[1]; [9],5.2 nmol/g
same,concentration of prodrug in large intestine,[1]; [10],27.3 nmol/g
same,concentration of prodrug in liver,[1]; [11],113.5 nmol/g
same,concentration of prodrug in liver,[1]; [12],43.9 nmol/g
same,concentration of prodrug in small intestine,[1]; [13],364.5 nmol/g
same,concentration of prodrug in small intestine,[1]; [14],31.7 nmol/g
same,concentration of prodrug in spleen,[1]; [15],1.4 nmol/g
same,concentration of prodrug in spleen,"[1]; SPLEEN, 120 min, 50 mg/kg i.p. or i.v., CD-1 nude mice",1.1 nmol/g
same,stability in vivo (in words),[1]; 50 mg/kg,stable in vivo
same,remaining at 0.5 h,[1]; [16],75%
same,remaining at 2 h,[1]; [17],56%
same,remaining at 0.5 h,[1]; [18],71%
same,remaining at 2 h,[1]; [19],55%
same,remaining at 0.5 h,[1]; [20],84%
same,remaining at 2 h,[1]; [21],81%
same,remaining at 0.5 h,[1]; [22],93%
same,remaining at 2 h,[1]; [23],57%
same,remaining at 0.5 h,[1]; [24],90%
same,remaining at 2 h,[1]; [25],76%
same,concentration at 0.5 h,[1]; [26],28500 nM
same,remaining at 0.5 h,[1]; [27],95%
same,concentration at 2 h,"[1]; mouse, plasma, 50 mg/kg, PLASMA, 120 min, 50 mg/kg i.p. or i.v., CD-1 nude mice, read-out: concentration of prodrug in plasma",1100 nM
same,remaining at 2 h,"[1]; mouse, plasma, 50 mg/kg, PLASMA, 120 min, 50 mg/kg i.p. or i.v., CD-1 nude mice, read-out: stability: percentage of material observed as intact prodrug, plasma",90%
same,remaining at 0.5 h,[1]; [28],77%
same,remaining at 2 h,[1]; [29],35%
same,remaining at 0.5 h,[1]; [30],98%
same,remaining at 2 h,"[1]; mouse, spleen, 50 mg/kg, SPLEEN, 120 min, 50 mg/kg i.p. or i.v., CD-1 nude mice, read-out: stability: percentage of material observed as intact prodrug, spleen",100%
same,kcat/Km for human CPA1 compared with that of the L-phenylalanine prodrug (in words),[2],much lower
same,substrate for wild type CPA (in words),[2],not for the wild type enzyme
same,kcat,"[2]; Human CPA1, 25° C., pH 7.4",0.012 s⁻¹
same,Km,268ala,56 µM
same,kcat,268ala,0.088 s⁻¹
same,kcat/Km,268gly,157000 M⁻¹ s⁻¹
same,Km,"268gly; 268gly, 25° C., pH 7.4",15 µM
same,kcat,"268gly; 268gly, 25° C., pH 7.4",2.35 s⁻¹
same,substrate for a mutant enzyme (in words),mutant enzyme,good substrates for a mutant enzyme
same,MTD,in vivo,≥ 20 mg/kg
CN(Cc1cnc2nc(N)nc(N)c2n1)c1ccc(C(=O)N[C@@H](CCC(=O)O)C(=O)N[C@@H](Cc2cccc(C3CCCC3)c2)C(=O)O)cc1 [Prodrug 9],concentration of prodrug in cecum,[1]; [3],4.l
same,concentration of prodrug in cecum,[1]; [4],108.3 nmol/g
same,concentration of prodrug in feces,"[1]; FECES, 30 min, 50 mg/kg i.p. or i.v., BALB/C mice",1604.27 nmol/g
same,concentration of prodrug in feces,[1]; [5],1104.1 nmol/g
same,concentration of prodrug in feces,[1]; [6],1505.7 nmol/g
same,concentration of prodrug in kidney,[1]; [7],6.8 nmol/g
same,concentration of prodrug in kidney,[1]; [8],1.3 nmol/g
same,concentration of prodrug in large intestine,[1]; [9],2.6 nmol/g
same,concentration of prodrug in large intestine,[1]; [10],6.2 nmol/g
same,concentration of prodrug in liver,[1]; [11],54.3 nmol/g
same,concentration of prodrug in liver,[1]; [12],126.2 nmol/g
same,concentration of prodrug in small intestine,"[1]; SMALL INTESTINE, 30 min, 50 mg/kg i.p. or i.v., BALB/C mice",420.3 nmol/g
same,concentration of prodrug in small intestine,[1]; [13],377.9 nmol/g
same,concentration of prodrug in small intestine,[1]; [14],211.0 nmol/g
same,concentration of prodrug in spleen,[1]; [15],8.4 nmol/g
same,stability in vivo (in words),[1]; 50 mg/kg,stable in vivo
same,remaining at 0.5 h,[1]; [16],100%
same,remaining at 2 h,[1]; [17],99%
same,remaining at 0.5 h,"[1]; mouse, feces, 50 mg/kg, FECES, 30 min, 50 mg/kg i.p. or i.v., BALB/C mice, read-out: stability: percentage of material observed as intact prodrug, feces (converted)",98%
same,remaining at 0.5 h,[1]; [18],97%
same,remaining at 2 h,[1]; [19],94%
same,remaining at 0.5 h,[1]; [20],100%
same,remaining at 2 h,[1]; [21],100%
same,remaining at 0.5 h,[1]; [22],100%
same,remaining at 2 h,[1]; [23],100%
same,remaining at 0.5 h,[1]; [24],83%
same,remaining at 2 h,[1]; [25],94%
same,concentration at 0.5 h,"[1]; mouse, plasma, 50 mg/kg, PLASMA, 30 min, 50 mg/kg i.p. or i.v., BALB/C mice, read-out: concentration of prodrug in plasma",4900 nM
same,remaining at 0.5 h,"[1]; mouse, plasma, 50 mg/kg, PLASMA, 30 min, 50 mg/kg i.p. or i.v., BALB/C mice, read-out: stability: percentage of material observed as intact prodrug, plasma",100%
same,concentration at 0.5 h,[1]; [26],1100 nM
same,remaining at 0.5 h,[1]; [27],100%
same,remaining at 0.5 h,"[1]; mouse, small intestine, 50 mg/kg, SMALL INTESTINE, 30 min, 50 mg/kg i.p. or i.v., BALB/C mice, read-out: stability: percentage of material observed as intact prodrug, small intestine",98%
same,remaining at 0.5 h,[1]; [28],97%
same,remaining at 2 h,[1]; [29],93%
same,remaining at 0.5 h,[1]; [30],100%
same,human CPA catalyzed reaction (in words),[2],not measureable
same,kcat/Km for human CPA1 compared with that of the L-phenylalanine prodrug (in words),[2],much lower
same,substrate for wild type CPA (in words),[2],not for the wild type enzyme
same,kcat/Km,268gly,92000 M⁻¹ s⁻¹
same,substrate for a mutant enzyme (in words),mutant enzyme,good substrates for a mutant enzyme
